Test results published in ChEMBL document CHEMBL5257159, “Insights into targeting SARS-CoV-2: design, synthesis, in silico studies and antiviral evaluation of new dimethylxanthine derivatives” (RSC Med Chem, 2023).
Activity calls are given as the source filed them.

Experiments:
MCF7 = experiment: Cytotoxicity against human MCF7 cells assessed as inhibition of cell growth incubated for 48 hrs by SRB assay; type: functional, cell-based
PC-3 = experiment: Cytotoxicity against human PC-3 cells assessed as inhibition of cell growth incubated for 48 hrs by SRB assay; type: functional, cell-based
SK-MEL-28 = experiment: Cytotoxicity against human SK-MEL-28 cells assessed as inhibition of cell growth incubated for 48 hrs by SRB assay; type: functional, cell-based
A549 = experiment: Cytotoxicity against human A549 cells assessed as inhibition of cell growth incubated for 48 hrs by SRB assay; type: functional, cell-based
NCI-H23 = experiment: Cytotoxicity against human NCI-H23 cells assessed as inhibition of cell growth incubated for 48 hrs by SRB assay; type: functional, cell-based
SR = experiment: Cytotoxicity against human SR cells assessed as inhibition of cell growth incubated for 48 hrs by SRB assay; type: functional, cell-based
HCT-15 = experiment: Cytotoxicity against human HCT-15 cells assessed as inhibition of cell growth incubated for 48 hrs by SRB assay; type: functional, cell-based
SNB-19 = experiment: Cytotoxicity against human SNB-19 cells assessed as inhibition of cell growth incubated for 48 hrs by SRB assay; type: functional, cell-based
CCRF-CEM = experiment: Cytotoxicity against human CCRF-CEM cells assessed as inhibition of cell growth incubated for 48 hrs by SRB assay; type: functional, cell-based
HCT-116 = experiment: Cytotoxicity against human HCT-116 cells assessed as inhibition of cell growth incubated for 48 hrs by SRB assay; type: functional, cell-based
KM12 = experiment: Cytotoxicity against human KM12 cells assessed as inhibition of cell growth incubated for 48 hrs by SRB assay; type: functional, cell-based
SF-268 = experiment: Cytotoxicity against human SF-268 cells assessed as inhibition of cell growth incubated for 48 hrs by SRB assay; type: functional, cell-based
LOX IMVI = experiment: Cytotoxicity against human LOX IMVI cells assessed as inhibition of cell growth incubated for 48 hrs by SRB assay; type: functional, cell-based
UACC-257 = experiment: Cytotoxicity against human UACC-257 cells assessed as inhibition of cell growth incubated for 48 hrs by SRB assay; type: functional, cell-based
HOP-92 = experiment: Cytotoxicity against human HOP-92 cells assessed as inhibition of cell growth incubated for 48 hrs by SRB assay; type: functional, cell-based
Hs578Bst = experiment: Cytotoxicity against human Hs578Bst cells assessed as inhibition of cell growth incubated for 48 hrs by SRB assay; type: functional, cell-based
MDA-MB-435 = experiment: Cytotoxicity against human MDA-MB-435 cells assessed as inhibition of cell growth incubated for 48 hrs by SRB assay; type: functional, cell-based
SK-MEL-5 = experiment: Cytotoxicity against human SK-MEL-5 cells assessed as inhibition of cell growth incubated for 48 hrs by SRB assay; type: functional, cell-based
OVCAR-3 = experiment: Cytotoxicity against human OVCAR-3 cells assessed as inhibition of cell growth incubated for 48 hrs by SRB assay; type: functional, cell-based
SNB-75 = experiment: Cytotoxicity against human SNB-75 cells assessed as inhibition of cell growth incubated for 48 hrs by SRB assay; type: functional, cell-based
SARS-CoV-2 = experiment: Antiviral activity against SARS-CoV-2 NRC-03-nhCoV infected in african green monkey Vero E6 cells assessed as inhibition of virus-induced cytopathic effect measured after 72 hrs by crystal violet staining based assay; type: functional, organism-based; settings: Severe acute respiratory syndrome coronavirus 2, NRC-03-nhCoV, Vero C1008, 72 h
RXF 393 = experiment: Cytotoxicity against human RXF 393 cells assessed as inhibition of cell growth incubated for 48 hrs by SRB assay; type: functional, cell-based
NCI-H522 = experiment: Cytotoxicity against human NCI-H522 cells assessed as inhibition of cell growth incubated for 48 hrs by SRB assay; type: functional, cell-based
Malme-3M = experiment: Cytotoxicity against human Malme-3M cells assessed as inhibition of cell growth incubated for 48 hrs by SRB assay; type: functional, cell-based
DU-145 = experiment: Cytotoxicity against human DU-145 cells assessed as inhibition of cell growth incubated for 48 hrs by SRB assay; type: functional, cell-based
SK-MEL-2 = experiment: Cytotoxicity against human SK-MEL-2 cells assessed as inhibition of cell growth incubated for 48 hrs by SRB assay; type: functional, cell-based
A498 = experiment: Cytotoxicity against human A498 cells assessed as inhibition of cell growth incubated for 48 hrs by SRB assay; type: functional, cell-based
SF-295 = experiment: Cytotoxicity against human SF-295 cells assessed as inhibition of cell growth incubated for 48 hrs by SRB assay; type: functional, cell-based
OVCAR-4 = experiment: Cytotoxicity against human OVCAR-4 cells assessed as inhibition of cell growth incubated for 48 hrs by SRB assay; type: functional, cell-based
UO-31 = experiment: Growth inhibition of human UO-31 cells incubated for 48 hrs by SRB assay relative to control; type: functional
[1] = target: T1, Replicase polyprotein 1ab (Severe acute respiratory syndrome coronavirus 2, UniProt P0DTD1); experiment: Inhibition of MBP tagged recombinant SARS-CoV-2 main protease using DABCYL-KTSAVLeu(13C6,15N)-Q as substrate incubated for 2 to 3 hrs by mass spectrometric analysis
[2] = Selectivity index, ratio of CC50 for african green monkey Vero E6 cells to IC50 for antiviral activity against SARS-CoV-2 NRC-03-nhCoV infected in african green monkey Vero E6 cells; type: toxicity, Vero C1008; settings: read-out: Ratio CC50/IC50
HL-60(TB) = experiment: Cytotoxicity against human HL-60(TB) cells assessed as inhibition of cell growth incubated for 48 hrs by SRB assay; type: functional, cell-based
NCI-H460 = experiment: Cytotoxicity against human NCI-H460 cells assessed as inhibition of cell growth incubated for 48 hrs by SRB assay; type: functional, cell-based
HOP-62 = experiment: Cytotoxicity against human HOP-62 cells assessed as inhibition of cell growth incubated for 48 hrs by SRB assay; type: functional, cell-based
OVCAR-5 = experiment: Cytotoxicity against human OVCAR-5 cells assessed as inhibition of cell growth incubated for 48 hrs by SRB assay; type: functional, cell-based
T47D = experiment: Cytotoxicity against human T47D cells assessed as inhibition of cell growth incubated for 48 hrs by SRB assay; type: functional, cell-based
NCI-H322M = experiment: Cytotoxicity against human NCI-H322M cells assessed as inhibition of cell growth incubated for 48 hrs by SRB assay; type: functional, cell-based
MDA-MB-468 = experiment: Cytotoxicity against human MDA-MB-468 cells assessed as inhibition of cell growth incubated for 48 hrs by SRB assay; type: functional, cell-based
U-251 = experiment: Cytotoxicity against human U-251 cells assessed as inhibition of cell growth incubated for 48 hrs by SRB assay; type: functional, cell-based
786-0 = experiment: Cytotoxicity against human 786-0 cells assessed as inhibition of cell growth incubated for 48 hrs by SRB assay; type: functional, cell-based
TK-10 = experiment: Cytotoxicity against human TK-10 cells assessed as inhibition of cell growth incubated for 48 hrs by SRB assay; type: functional, cell-based
HCC 2998 = experiment: Cytotoxicity against human HCC 2998 cells assessed as inhibition of cell growth incubated for 48 hrs by SRB assay; type: functional, cell-based
M14 = experiment: Cytotoxicity against human M14 cells assessed as inhibition of cell growth incubated for 48 hrs by SRB assay; type: functional, cell-based
SF-539 = experiment: Cytotoxicity against human SF-539 cells assessed as inhibition of cell growth incubated for 48 hrs by SRB assay; type: functional, cell-based
SW-620 = experiment: Cytotoxicity against human SW620 cells assessed as inhibition of cell growth incubated for 48 hrs by SRB assay; type: functional, cell-based
[3] = target: T1, Replicase polyprotein 1ab; experiment: Inhibition of SARS-CoV-2 RdRP using ATP substrate preincubated with compound for 30 mins followed by substrate addition and measured after 30 mins by Alphascreen microplate reader analysis
HT-29 = experiment: Cytotoxicity against human HT-29 cells assessed as inhibition of cell growth incubated for 48 hrs by SRB assay; type: functional, cell-based
NCI/ADR-RES = experiment: Cytotoxicity against human NCI/ADR-RES cells assessed as inhibition of cell growth incubated for 48 hrs by SRB assay; type: functional, cell-based
COLO 205 = experiment: Cytotoxicity against human COLO 205 cells assessed as inhibition of cell growth incubated for 48 hrs by SRB assay; type: functional, cell-based
MDA-MB-231 = experiment: Cytotoxicity against human MDA-MB-231 cells assessed as inhibition of cell growth incubated for 48 hrs by SRB assay; type: functional, cell-based
IGROV-1 = experiment: Cytotoxicity against human IGROV-1 cells assessed as inhibition of cell growth incubated for 48 hrs by SRB assay; type: functional, cell-based
BT-549 = experiment: Cytotoxicity against human BT-549 cells assessed as inhibition of cell growth incubated for 48 hrs by SRB assay; type: functional, cell-based
CAKI-1 = experiment: Cytotoxicity against human CAKI-1 cells assessed as inhibition of cell growth incubated for 48 hrs by SRB assay; type: functional, cell-based
RPMI-8226 = experiment: Cytotoxicity against human […] cells assessed as inhibition of cell growth incubated for 48 hrs by SRB assay; type: functional, cell-based
SN12C = experiment: Cytotoxicity against human SN12C cells assessed as inhibition of cell growth incubated for 48 hrs by SRB assay; type: functional, cell-based
MOLT-4 = experiment: Cytotoxicity against human MOLT-4 cells assessed as inhibition of cell growth incubated for 48 hrs by SRB assay; type: functional, cell-based
NCI-H226 = experiment: Cytotoxicity against human NCI-H226 cells assessed as inhibition of cell growth incubated for 48 hrs by SRB assay; type: functional, cell-based
[4] = Cytotoxicity against African green monkey Vero E6 cells measured after 72 hrs by MTT assay; type: toxicity, cell-based, Vero C1008; settings: chlorocebus sabaeus
K562 = experiment: Cytotoxicity against human K562 cells assessed as inhibition of cell growth incubated for 48 hrs by SRB assay; type: functional, cell-based
ACHN = experiment: Cytotoxicity against human ACHN cells assessed as inhibition of cell growth incubated for 48 hrs by SRB assay; type: functional, cell-based
OVCAR-8 = experiment: Cytotoxicity against human OVCAR-8 cells assessed as inhibition of cell growth incubated for 48 hrs by SRB assay; type: functional, cell-based
SK-OV-3 = experiment: Cytotoxicity against human SK-OV-3 cells assessed as inhibition of cell growth incubated for 48 hrs by SRB assay; type: functional, cell-based
EKVX = experiment: Cytotoxicity against human EKVX cells assessed as inhibition of cell growth incubated for 48 hrs by SRB assay; type: functional, cell-based

Cn1cnc2c1c(=O)n(CC(=O)Nc1ccc(S(=O)(=O)Nc3ncccn3)cc1)c(=O)n2C
8.06 µM: IC50 [1]
129: selectivity ratio [2]
3.22 µM: IC50 [3]
8.86 µM: IC50 (SARS-CoV-2)
1140 µM: CC50 at 72 h [4]
inactive: Activity (MCF7) | Activity (PC-3) | Activity (SK-MEL-28) | Activity (A549) | Activity (NCI-H23) | Activity (SR) | Activity (HCT-15) | Activity (SNB-19) | Activity (CCRF-CEM) | Activity (HCT-116) | Activity (KM12) | Activity (SF-268) | Activity (LOX IMVI) | Activity (UACC-257) | Activity (HOP-92) | Activity (Hs578Bst) | Activity (MDA-MB-435) | Activity (SK-MEL-5) | Activity (OVCAR-3) | Activity (SNB-75) | Activity (RXF 393) | Activity (NCI-H522) | Activity (Malme-3M) | Activity (DU-145) | Activity (SK-MEL-2) | Activity (A498) | Activity (SF-295) | Activity (OVCAR-4) | Activity (HL-60(TB)) | Activity (NCI-H460) | Activity (HOP-62) | Activity (OVCAR-5) | Activity (T47D) | Activity (NCI-H322M) | Activity (MDA-MB-468) | Activity (U-251) | Activity (786-0) | Activity (TK-10) | Activity (HCC 2998) | Activity (M14) | Activity (SF-539) | Activity (SW-620) | Activity (HT-29) | Activity (NCI/ADR-RES) | Activity (COLO 205) | Activity (MDA-MB-231) | Activity (IGROV-1) | Activity (BT-549) | Activity (CAKI-1) | Activity (RPMI-8226) | Activity (SN12C) | Activity (MOLT-4) | Activity (NCI-H226) | Activity (K562) | Activity (ACHN) | Activity (OVCAR-8) | Activity (SK-OV-3) | Activity (EKVX)
17.55%: growth inhibition (GI) (UO-31)
